Measured values as given in patent publication US20110212083A1, “ROLE OF SOLUBLE UPAR IN THE PATHOGENESIS OF PROTEINURIC KIDNEY DISEASE” (University of Miami Office of Technology Transfer, priority 2008, published 2011).
Entries after “also recorded” stand apart in the source; their conditions may differ.

How the values were obtained:
αvβ3 integrin = details: in vivo; cited from earlier work
57BL/6 and Plaur−/− mice = assay: right kidney cross-transplantation with LPS treatment (TEM and uPAR immunostaining); assay type: in vivo, mouse; details: for foot process effacement (TEM): LPS 10 mg/kg i.p., 24 h
Method: Right kidney cross-transplantation: Six 57BL/6 female mice and 6 Plaur^−/− female mice in the same age and body weight ranges (7-8 weeks, 15-18 g) were randomly recruited into this study. The right kidney from Plaur^−/− mice were transplanted into 57BL/6 mice at the right side and vice versa. Kidney transplantation was performed as previously described (Coffman, T. et al, J. Immunol. 151, 425-435 (1993); Han, W. R., Murray-Segal, L. J. and Mottram, P. L. Microsurgery. 19, 272-274 (1999)). After recovery from surgery, mice were randomly treated with LPS at 10 mg/kg body weight, i.p. or same amount of PBS for control. 24 h after LPS injection, mice were sacrificed, and kidney was taken out for further analysis.
Transmission electron microscopy (TEM): TEM was performed according to the standard protocols (Sever, S. et al. J. Clin. Invest. 117, 2095-2104 (2007)).
To further confirm the role of suPAR in proteinuria development and kidney disease, cross-kidney transplantation was performed and the effect of endogenous soluble form of uPAR was examined. The right kidney was excised from normal 57BL/6, and transplanted into Plaur^−/− mice on the right side and vice versa (FIG. 3A). Mice were randomly chosen to receive lipopolysaccharide (LPS) to induce proteinuria or PBS for control after recovery from surgery. […] For the PBS treated 57BL/6 mice however, foot process effacement was not remarkable in either transplanted Plaur^−/− kidney or native 57BL/6 kidney (FIG. 1E). […] In contrast, foot process effacement was not remarkable in either native Plaur^−/− kidney or in the transplanted 57BL/6 kidney of PBS controlled mice (FIG. 1F). […] In order to determine whether suPAR is responsible for the phenomena, the sections were immunostained from both native and transplanted kidney with uPAR antibody.

Molecule | proteinuria caused by uPAR-β3-integrin signaling (αvβ3 integrin) | foot process effacement (TEM) (57BL/6 and Plaur−/− mice; 57BL/6 mice, native 57BL/6 kidney) | foot process effacement (TEM) (57BL/6 and Plaur−/− mice; 57BL/6 mice, transplanted Plaur−/− kidney) | podocyte uPAR expression (immunostaining) (57BL/6 and Plaur−/− mice; LPS treated 57BL/6 mice, native 57BL/6 kidney) | podocyte uPAR expression or deposit (immunostaining) (57BL/6 and Plaur−/− mice; LPS treated 57BL/6 mice, transplanted Plaur−/− kidney) | uPAR in podocytes (immunostaining) (57BL/6 and Plaur−/− mice; LPS treated Plaur−/− mice, native Plaur−/− kidney) | uPAR expression (immunostaining) (57BL/6 and Plaur−/− mice; LPS treated Plaur−/− mice, transplanted 57BL/6 kidney) | foot process effacement (TEM) (57BL/6 and Plaur−/− mice; Plaur−/− mice, native Plaur−/− kidney) | foot process effacement (TEM) (57BL/6 and Plaur−/− mice; Plaur−/− mice, transplanted 57BL/6 kidney)
CC(C)[C@@H]1NC(=O)[C@@H](Cc2ccccc2)NC(=O)[C@H](CC(=O)O)NC(=O)CNC(=O)[C@H](CCCN=C(N)N)NC1=O [cycloRGDfV] | prevented and reduced; also recorded: blocked |  |  |  |  |  |  |  | 
lipopolysaccharide [LPS] |  | significant foot process effacement | massive foot process effacement | increased podocyte uPAR expression | clear uPAR expression or deposit | not any uPAR | increased uPAR expression | not | readily observed
